Data taken from US11116774B2, “Modulators of toll-like receptors for the treatment of HIV” (Gilead Sciences, Inc., priority 2014, dated 2021).
“And” between values parts separate entries of the source, which are not always exact repeats. Identical values can stand only once.

How the values were obtained:
Assay type in all cases: cell-based, human
[1] = test system: polyfunctional proliferating CD8 T cells (CFSE low, IFNg+, TNFa+); test: Induction of HIV-specific polyfunctional CD8 T cells ex vivo (Example 216); conditions: PBMCs from 5 HIV-infected donors, HIV peptide pools
Experimental: PBMCs from 5 HIV-infected donors (Donor IDs 178-180 and 182-183) on suppressive cART were isolated, as described previously, and stained with carboxyfluorescein succinimiyl ester (CFSE). PBMC cultures were treated with DMSO or the compound of Example 49 (GS-9620) at 0.1 or 1 uM. Cultures were incubated at 37° C. for 2 days and treated with 500 ng/ml 15-mer peptide pools derived from overlapping HIV gag, pol, nef, and env consensus peptides (JPT Peptide Technologies GmbH). Cells were incubated at 37° C. for 8 days. Cultures were split into duplicate sets and stained in dulbecco's phosphate buffered saline (DPBS) with LIVE/DEAD Fixable Aqua Dead Cell Stain (Life Technologies). The immune recall response was performed as follows. One culture set was treated with the same HIV peptide pools and the other set was treated with 500 ng/ml CMV/EBV/Flu/Tetanus (CEFT) peptides (JPT Peptide Technologies GmbH). After one hour at 37° C., cultures were treated with 0.7 μl GolgiStop (BD Biosciences) containing monensin and 1 μl GolgiPlug (BD Biosciences) containing brefeldin A. Cultures were incubated for 3 additional hours at 37° C. and stained for 15 minutes with anti-CD4-v450, anti-CD3-AlexaFlour 700, and anti CD8-APC-H7 (BD Biosciences). Cultures were fixed with IC Fixation Buffer (eBioscience) and permeabilized with Permeabilization Buffer (eBioscience). […]

[2] = test system: polyfunctional proliferating CD8 T cells (CFSE low, IFNg+, TNFa+); test: Induction of HIV-specific polyfunctional CD8 T cells by combination with an IDO1 inhibitor (Example 217); conditions: 0.1 uM; PBMCs from 4 HIV-infected donors; 8 days
Experimental: PBMCs from 4 HIV-infected donors (Donor IDs 180-183) on suppressive cART were isolated, as described previously, stained with CFSE, and treated with 500 ng/ml 15-mer peptide pools derived from overlapping HIV gag, pol, nef, and env consensus peptides (JPT Peptide Technologies GmbH). PBMC cultures were treated with DMSO or the compound of Example 49 (GS-9620) at 0.1 uM. In some cultures treated with Example 49, the IDO1 small molecule inhibitor, INCB024360, was combined at 2 μM. Cells were incubated at 37° C. for 8 days, then split into duplicate sets and stained in DPBS with LIVE/DEAD Fixable Aqua Dead Cell Stain (Life Technologies). The immune recall response was performed as previously described. FACS was performed on a LSR Fortessa (BD Biosciences) and data analysis was done with FlowJo software (TreeStar). Data was plotted and statistical analysis was done with GraphPad Prism software (GraphPad).

[3] = test system: HIV-infected CD4 T cells (HIV-1 clinical isolate HT593); test: Killing of HIV-infected CD4 T cells by combination of Example 49 and HIV antibody PGT121 (Example 218); conditions: 5 days, combined with PGT121, two donors
Experimental: PBMCs from […] (AllCells: Donor IDs A4593, A4596, A4606) were isolated, as described previously. PBMCs were treated with DMSO or with the compound of Example 49 (GS-9620) at 0.1 uM or 1 uM in replicate culture sets of 8 for 5 days. In parallel, total CD4 T cells were isolated from each donors' PBMCs using the EasySep Human CD4+ T cell Enrichment Kit (Stemcell Technologies). CD4 T cells were infected in bulk with the HIV-1 clinical isolate HT593 (NIH AIDS Reagent Program) using 50-100 ng p24/million CD4 T cells by spinfecting at 1200×g for 2 hours. HIV-infected CD4 T cells were incubated for 5 days at 37° C. in RPMI plus 10% FBS with 30 U/mL IL-2 (Invitrogen). After 5 days in culture, HIV-infected CD4 T cells were washed, counted, and added to PBMCs from the autologous donor at a ratio of 20 PBMCs to 1 CD4 T cell (20:1). To each co-culture replicate, HIV antibody PGT121 (Gilead Sciences, Inc.) was added at concentrations from 6.7e-5 nM to 6.7e2 nM. Co-cultures were incubated with or without HIV antibody for 1 day at 37° C.
Co-cultures were collected and stained with live/dead Fixable Aqua Dead Cell Stain (Invitrogen) and PE-Cy7-labeled antibody to CD4 (BD Biosciences). Cells were fixed and permeabilized, as described previously, and stained with PE labeled antibody to HIV Gag protein p24 (Beckman Coulter). FACS was performed on a LSR Fortessa (BD Biosciences) and data analysis was done with FlowJo software (TreeStar). Data was plotted and statistical analysis was done with GraphPad Prism software (GraphPad). Killing of HIV-infected CD4 T cells was calculated as a reduction of CD4+p24+ T cells at each PGT121 concentration relative to cultures without PGT121.

Structure (SMILES): CCCCOc1nc(N)c2c(n1)N(Cc1cccc(CN3CCCC3)c1)CC(=O)N2 [Example 49]
- increase of mean level of polyfunctional proliferating CD8 T cells compared to DMSO ([1]; 0.1 uM, p<0.05): 9.0 fold
- increase of mean level of polyfunctional proliferating CD8 T cells compared to DMSO ([1]; 1 uM, p<0.005): 7.5 fold
- increase of mean level of polyfunctional proliferating CD8 T cells compared to DMSO [2]: 2.9 fold
- increase of AUC relative to DMSO controls ([3]; Example 49 0.1 uM): 32% and 52%
- increase of maximal killing relative to DMSO controls ([3]; Example 49 0.1 uM): 30% and 38%
- increase of AUC relative to DMSO controls ([3]; Example 49 1 uM): 52% and 73%
- increase of maximal killing relative to DMSO controls ([3]; Example 49 1 uM): 50% and 48%
